These results are taken from the supplement of paper PMC10307832.

Common to all, as to assay: relative viability (nuclei count vs DMSO), 5 days (fraction); higher = more cells survive
Compound in assay [1]: C[C@@H](N)c1ccc(C(=O)Nc2ccnc3[nH]ccc23)cc1 + C[C@]1(O)C[C@@H](c2nc(-c3ccc4ccc(-c5ccccc5)nc4c3)c3c(N)nccn32)C1 [Linsitinib] (partner 1 µM)
Summed up:
(§1)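 Dosing by pin tool came one day after lung cancer cell lines were seeded in 1536-well plates, using either one drug or a fixed anchor-drug dose plus five library-drug doses (not always all listed) in √10 steps. After 5 days, nuclei were counted on 4× images. Relative viability is treated-well nuclei count divided by vehicle-well nuclei count, and values are medians of duplicate plates.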

Compound in assay [2]: C1CNCCC1C2=CC(=NN2)C3=CC=NC=C3 + O=C(c1cc(Cc2n[nH]c(=O)c3ccccc23)ccc1F)N1CCN(C(=O)C2CC2)CC1 [Olaparib] (partner 8 µM)
Summed up: as §1

Compound in assay [3]: C[C@@H](N)c1ccc(C(=O)Nc2ccnc3[nH]ccc23)cc1 + CC(=O)c1c(C)c2cnc(Nc3ccc(N4CCNCC4)cn3)nc2n(C2CCCC2)c1=O [Palbociclib] (partner 0.5 µM)
The essentials: as §1

Compound in assay [4]: O[C@H]1CC[C@H](Nc2ncc3nc(Nc4c(F)cc(F)cc4F)n([C@H]4CCOC4)c3n2)CC1 [Tanzisertib] + CC(=O)c1c(C)c2cnc(Nc3ccc(N4CCNCC4)cn3)nc2n(C2CCCC2)c1=O [Palbociclib] (partner 0.5 µM)
The essentials:
as §1

For UMC-11, the relative viability in assay [1] (first compound 0.04 µM) worked out at 1.02; in assay [1] (first compound 0.1265 µM), 1.09; in assay [1] (first compound 0.4 µM) it was 1.06; in assay [1] (first compound 1.265 µM) it was 0.958; in assay [1] (first compound 4 µM), 0.641; in assay [2] (first compound 0.08 µM), 0.403. Also, the relative viability is 0.379 in assay [2] (first compound 0.8 µM); 0.436 in assay [2] (first compound 2.53 µM); 0.365 in assay [2] (first compound 8 µM); 0.334 in assay [3] (first compound 0.1265 µM); 0.306 in assay [3] (first compound 0.4 µM); 0.29 in assay [3] (first compound 1.265 µM). Besides, the relative viability in assay [3] (first compound 4 µM) came to 0.318; in assay [4] (first compound 0.08 µM), 0.346; in assay [4] (first compound 0.253 µM), 0.285; in assay [4] (first compound 0.8 µM), 0.319; in assay [4] (first compound 2.53 µM), 0.325; in assay [4] (first compound 8 µM) it was 0.355.
